Results published in US11584747B2, “Substituted pyridopyrimidinonyl compounds useful as T cell activators” (BRISTOL-MYERS SQUIBB COMPANY, priority 2019, dated 2023).
pEC50, pIC50: −log10 of the molar value.

Legend:
whole blood (pERK) = assay: pERK Whole Blood; type: cell-based
human DGKζ = human DGKζ (Homo sapiens (Human), UniProt Q13574); assay: DGKζ LIPGLO assay (extruded liposome substrate, ADP-Glo luminescence); type: biochemical; details: liposome (LIPGLO) assay; read-out: DGK zeta (liposome assay) IC50
human DGKα = human DGKα (Homo sapiens (Human), UniProt P23743); assay: DGKα ADPGLO assay (detergent/lipid micelle substrate); type: biochemical; details: ADPGLO assay; read-out: DGK alpha ADPGLO IC50
Method: DGK Alpha ADPGLO (Truncated) IC50 (uM)
The detergent/lipid micelle was prepared by combining 15 g phosphatidylserine (Avanti 840035P) and 1 g diacylglycerol (8008110) and dissolving into 150 mL chloroform in a 2 L round bottom flask. Chloroform was removed under high vacuum by rotary evaporation. […] The lipid/detergent solution was split into 5 mL aliquots and stored at −80° C.

human DGKζ, sequence (Q13574 other isoform, or with tags, fused parts or gaps): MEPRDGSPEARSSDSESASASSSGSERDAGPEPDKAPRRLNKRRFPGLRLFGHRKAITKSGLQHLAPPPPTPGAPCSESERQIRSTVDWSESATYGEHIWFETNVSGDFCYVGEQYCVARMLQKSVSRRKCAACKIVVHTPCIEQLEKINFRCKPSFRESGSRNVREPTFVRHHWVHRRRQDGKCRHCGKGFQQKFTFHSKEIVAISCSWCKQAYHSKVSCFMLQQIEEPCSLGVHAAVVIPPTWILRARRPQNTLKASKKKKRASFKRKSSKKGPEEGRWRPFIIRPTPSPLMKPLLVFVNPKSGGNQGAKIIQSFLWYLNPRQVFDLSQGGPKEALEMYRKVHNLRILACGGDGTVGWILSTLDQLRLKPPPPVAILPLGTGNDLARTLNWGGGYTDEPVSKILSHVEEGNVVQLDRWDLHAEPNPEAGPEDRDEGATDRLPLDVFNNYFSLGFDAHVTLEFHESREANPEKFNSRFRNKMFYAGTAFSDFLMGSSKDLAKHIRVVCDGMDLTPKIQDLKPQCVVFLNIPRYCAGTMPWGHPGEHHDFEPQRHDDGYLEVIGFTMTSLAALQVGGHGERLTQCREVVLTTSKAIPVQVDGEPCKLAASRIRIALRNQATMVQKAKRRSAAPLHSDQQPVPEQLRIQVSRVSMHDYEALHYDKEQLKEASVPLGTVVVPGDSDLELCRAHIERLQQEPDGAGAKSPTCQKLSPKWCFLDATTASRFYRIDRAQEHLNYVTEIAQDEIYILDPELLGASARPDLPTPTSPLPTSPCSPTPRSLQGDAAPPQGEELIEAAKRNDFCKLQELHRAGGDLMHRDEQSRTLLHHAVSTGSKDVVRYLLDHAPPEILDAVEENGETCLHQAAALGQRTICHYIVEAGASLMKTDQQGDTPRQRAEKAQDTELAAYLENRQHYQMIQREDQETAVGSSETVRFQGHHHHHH
human DGKα, sequence (P23743 whole entry, looked up, the tested form may be a part): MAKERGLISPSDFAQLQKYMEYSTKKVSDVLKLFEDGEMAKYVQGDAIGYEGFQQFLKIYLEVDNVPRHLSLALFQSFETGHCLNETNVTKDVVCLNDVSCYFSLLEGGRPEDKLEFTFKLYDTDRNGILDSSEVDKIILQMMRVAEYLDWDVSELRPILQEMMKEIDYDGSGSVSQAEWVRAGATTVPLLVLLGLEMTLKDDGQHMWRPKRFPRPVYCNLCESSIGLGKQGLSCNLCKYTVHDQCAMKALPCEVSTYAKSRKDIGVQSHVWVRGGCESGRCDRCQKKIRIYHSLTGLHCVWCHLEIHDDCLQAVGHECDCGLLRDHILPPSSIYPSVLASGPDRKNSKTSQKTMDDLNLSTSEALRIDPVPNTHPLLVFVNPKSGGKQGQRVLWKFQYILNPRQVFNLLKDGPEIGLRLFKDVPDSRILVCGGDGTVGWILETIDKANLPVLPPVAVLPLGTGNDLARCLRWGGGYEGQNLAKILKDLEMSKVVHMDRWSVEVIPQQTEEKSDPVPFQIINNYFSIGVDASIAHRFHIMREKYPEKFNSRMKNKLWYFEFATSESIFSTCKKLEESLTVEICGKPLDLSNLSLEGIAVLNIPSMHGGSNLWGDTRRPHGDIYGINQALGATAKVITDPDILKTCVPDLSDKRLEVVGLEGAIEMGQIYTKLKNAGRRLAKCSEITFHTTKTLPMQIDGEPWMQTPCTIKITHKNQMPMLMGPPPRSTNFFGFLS

| pEC50 (whole blood (pERK)) | pIC50 (human DGKζ) | pIC50 (human DGKα) | Structure (SMILES) |
| --- | --- | --- | --- |
| 4.70 | 5.97 | 7.14 | COC[C@H]1CN(C(C)c2ccc(C(F)(F)F)cc2)[C@H](C)CN1c1nc(=O)n(C)c2ccc(C#N)nc12 (single isomer, unassigned) [Example 409] |
| 4.70 | 6.43 | 6.70 | C[C@@H]1CN(c2nc(=O)n(C)c3ccc(C#N)nc23)[C@@H](C)CN1C(c1ccc(F)cc1)C12CC(C(F)(F)F)(C1)C2 (stereo partly drawn) [Example 450, 4-((2S,5R)-4-((4-fluorophenyl)(3-(trifluoromethyl)bicyclo[1.1.1]pentan-1-yl)methyl)-2,5-dimethylpiperazin-1-yl)-1-methyl-2-oxo-1,2-dihydropyrido[3,2-d]pyrimidine-6-carbonitrile] |
| 4.70 | 6.28 | 6.77 | [2H]C([2H])([2H])n1c(=O)nc(N2C[C@@H](CC)N(C(C)c3ccc(C(F)(F)F)cc3)C[C@@H]2C)c2nc(Cl)ccc21 (single isomer, unassigned) [Example 417] |
| 6.89 | 7.66 | 7.28 | CCC(c1ccc(F)c(F)c1)N1C[C@H](C)N(c2nc(=O)n(C)c3ccc(C#N)nc23)C[C@H]1CC (stereo partly drawn) [Example 319, 4-((2S,5R)-4-(1-(3,4-difluorophenyl)propyl)-5-ethyl-2-methylpiperazin-1-yl)-1-methyl-2-oxo-1,2-dihydropyrido[3,2-d]pyrimidine-6-carbonitrile] |
| 4.70 | 5.65 | 5.53 | CCC(c1c(F)cc(OCC2CC2)cc1F)N1C[C@H](C)N(c2nc(=O)n(C)c3ccc(C#N)nc23)C[C@H]1CC (stereo partly drawn) [Example 328, 4-((2S,5R)-4-(1-(4-(cyclopropylmethoxy)-2,6-difluorophenyl)propyl)-5-ethyl-2-methylpiperazin-1-yl)-1-methyl-2-oxo-1,2-dihydropyrido[3,2-d]pyrimidine-6-carbonitrile] |
| 5.38 | 6.70 | 6.07 | CC[C@@H]1CN(c2nc(=O)n(C)c3ccc(C#N)nc23)[C@@H](C)CN1C(c1ccc(OC(C)C)cc1)C(C)C (stereo partly drawn) [Example 324, 4-((2S,5R)-5-ethyl-4-(1-(4-isopropoxyphenyl)-2-methylpropyl)-2-methylpiperazin-1-yl)-1-methyl-2-oxo-1,2-dihydropyrido[3,2-d]pyrimidine-6-carbonitrile] |
| 6.57 | 6.72 | 7.59 | CC[C@@H]1CN(c2nc(=O)n(C)c3ccc(C#N)nc23)[C@@H](C)CN1C(c1ccc(F)cc1)c1cccc(C(F)F)n1 (stereo partly drawn) [Example 315, 4-((2 S,5R)-4-((6-(difluoromethyl)pyridin-2-yl)(4-fluorophenyl)methyl)-5-ethyl-2-methylpiperazin-1-yl)-1-methyl-2-oxo-1,2-dihydropyrido[3,2-d]pyrimidine-6-carbonitrile] |
| 5.47 | 6.92 | 6.74 | CCC1CN(c2nc(=O)n(C)c3ccc(C#N)nc23)[C@@H](C)CN1C(C)c1ccc(C(F)(F)F)c(CN2CCOCC2)c1 (single isomer, unassigned) [Example 350] |
| 7.14 | 5.20 | 6.13 | CCC(c1ccc(OCC2CN(C)C2)cc1)N1C[C@H](C)N(c2nc(=O)n(C)c3ccc(C#N)nc23)C[C@H]1CC (stereo partly drawn) [Example 343, 4-((2 S, 5R)-5-ethyl-2-methyl-4-(1-(4-((1-methylazetidin-3-yl)methoxy)phenyl)propyl)piperazin-1-yl)-1-methyl-2-oxo-1,2-dihydropyrido[3,2-d]pyrimidine-6-carbonitrile] |
| 5.74 | 6.48 | 7.28 | CCC(c1nc(C2CC2)no1)N1C[C@H](CC)N(c2nc(=O)n(C)c3ccc(C#N)nc23)C[C@H]1CC (stereo partly drawn) [Example 364, 4-((2S,5R)-4-(1-(3-cyclopropyl-1,2,4-oxadiazol-5-yl)propyl)-2,5-diethylpiperazin-1-yl)-1-methyl-2-oxo-1,2-dihydropyrido[3,2-d]pyrimidine-6-carbonitrile] |

The remaining lines, values behind:

| Structure (SMILES) | pEC50 (whole blood (pERK)) | pIC50 (human DGKζ) | pIC50 (human DGKα) |
| --- | --- | --- | --- |
| CC[C@H]1CN(C(C)c2ccc(C(F)(F)F)cc2)[C@H](CC)CN1c1nc(=O)n(C)c2ccc(OC(F)F)nc12 (stereo partly drawn) [Example 445, 4-((2S,5R)-2,5-Diethyl-4-(1-(4-(trifluoromethyl)phenyl)ethyl)piperazin-1-yl)-6-(difluoromethoxy)-1-methylpyrido[3,2-d]pyrimidin-2(1H)-one] | 5.02 | 5.66 | 6.02 |
| CCC(c1ccc(C(C)(C)C#N)cc1)N1C[C@H](C)N(c2nc(=O)n(C)c3ccc(C#N)nc23)C[C@H]1CC (stereo partly drawn) [Example 318, 4-((2S,5R)-4-(1-(4-(2-cyanopropan-2-yl)phenyl)propyl)-5-ethyl-2-methylpiperazin-1-yl)-1-methyl-2-oxo-1,2-dihydropyrido[3,2-d]pyrimidine-6-carbonitrile] | 5.51 | 5.80 | 6.21 |
| CC[C@@H]1CN(c2nc(=O)n(C)c3ccc(C#N)nc23)[C@@H](C)CN1C(c1ccc(OC)cc1)C(C)C (stereo partly drawn) [Example 314, 4-((2S,5R)-5-ethyl-4-(1-(4-methoxyphenyl)-2-methylpropyl)-2-methylpiperazin-1-yl)-1-methyl-2-oxo-1,2-dihydropyrido[3,2-d]pyrimidine-6-carbonitrile] | 7.30 | 8.40 | 7.60 |
| CC[C@@H]1CN(c2nc(=O)n(C)c3ccc(C#N)nc23)[C@@H](C)CN1C(C)c1ccc(C2(C#N)CC2)cc1 (stereo partly drawn) [Example 325, 4-((2S,5R)-4-(1-(4-(1-cyanocyclopropyl)phenyl)ethyl)-5-ethyl-2-methylpiperazin-1-yl)-1-methyl-2-oxo-1,2-dihydropyrido[3,2-d]pyrimidine-6-carbonitrile] | 7.15 | 7.16 | 6.10 |
| CCC(N1C[C@H](C)N(c2nc(=O)n(C)c3ccc(C#N)nc23)C[C@H]1C)C12CC(C(F)(F)F)(C1)C2 (single isomer, unassigned) [Example 449] | 4.70 | 5.39 | 5.13 |
| CCC(c1ccc(C(F)(F)F)cc1)N1C[C@H](C)N(c2nc(=O)n(C)c3ccc(C#N)nc23)C[C@H]1COC (single isomer, unassigned) [Example 399] | 4.70 | 6.15 | 6.80 |
| CCC(c1ccc(C(F)(F)F)cc1)N1C[C@H](CC)N(c2nc(=O)[nH]c3ccc(C#N)nc23)C[C@H]1CC (stereo partly drawn) [Example 416, 4-((2S,5R)-2,5-diethyl-4-(1-(4-(trifluoromethyl)phenyl)propyl)piperazin-1-yl)-2-oxo-1,2-dihydropyrido[3,2-d]pyrimidine-6-carbonitrile] | 5.50 | 6.13 | 6.85 |
| CC[C@@H]1CN(c2nc(=O)n(C)c3ccc(C#N)nc23)[C@@H](C)CN1C(C)c1ccc(C(F)(F)F)c(C#N)c1 (single isomer, unassigned) [Example 356] | 6.03 | 6.36 | 4.74 |
| CC[C@@H]1CN(c2nc(=O)[nH]c3ccc(C#N)nc23)[C@@H](C)CN1C(C)c1ccc(C(F)(F)F)cc1 (single isomer, unassigned) [Example 414] | 6.80 | 4.95 | 5.83 |
| CCC(c1ccc(OCC2CN(C)C2)cc1)N1C[C@H](C)N(c2nc(=O)n(C)c3ccc(C#N)nc23)C[C@H]1CC (stereo partly drawn) [Example 344, 4-((2 S, 5R)-5-ethyl-2-methyl-4-(1-(4-((1-methylazetidin-3-yl)methoxy)phenyl)propyl)piperazin-1-yl)-1-methyl-2-oxo-1,2-dihydropyrido[3,2-d]pyrimidine-6-carbonitrile] | 4.70 | 4.77 | 5.00 |
| CC[C@@H]1CN(c2nc(=O)n(C)c3ccc(C#N)nc23)[C@@H](CO)CN1C(C)c1ccc(C(F)(F)F)cc1 (single isomer, unassigned) [Example 411] | 5.72 | 5.91 | 6.09 |
| CCC(c1ccc(OCC2(C)CC2)cc1)N1C[C@H](C)N(c2nc(=O)n(C)c3ccc(C#N)nc23)C[C@H]1CC (stereo partly drawn) [Example 345, 4-((2S,5R)-5-ethyl-2-methyl-4-(1-(4-((1-methylcyclopropyl)methoxy)phenyl)propyl)piperazin-1-yl)-1-methyl-2-oxo-1,2-dihydropyrido[3,2-d]pyrimidine-6-carbonitrile] | 5.76 | 7.02 | 7.31 |
| CC[C@@H]1CN(c2nc(=O)n(C)c3ccc(C#N)nc23)[C@@H](C)CN1C(C)c1ccc(C2CCOCC2)cc1 (stereo partly drawn) [Example 330, 4-((2 S,5R)-5-ethyl-2-methyl-4-(1-(4-(tetrahydro-2H-pyran-4-yl)phenyl)ethyl)piperazin-1-yl)-1-methyl-2-oxo-1,2-dihydropyrido[3,2-d]pyrimidine-6-carbonitrile] | 4.96 | 5.55 | 6.19 |
| CC(c1ccc(CN2CC3(COC3)C2)cc1)N1C[C@H](C)N(c2nc(=O)n(C)c3ccc(C#N)nc23)C[C@H]1C (stereo partly drawn) [Example 392, 4-((2S,5R)-4-(1-(4-((2-oxa-6-azaspiro[3.3]heptan-6-yl)methyl)phenyl)ethyl)-2,5-dimethylpiperazin-1-yl)-1-methyl-2-oxo-1,2-dihydropyrido[3,2-d]pyrimidine-6-carbonitrile] | 5.16 | 4.47 | 5.55 |
| CCC(c1ccc(C(F)(F)F)cc1)N1C[C@H](CC)N(c2nc(=O)[nH]c3ccc(C#N)nc23)C[C@H]1CC (stereo partly drawn) [Example 415, 4-((2S,5R)-2,5-diethyl-4-(1-(4-(trifluoromethyl)phenyl)propyl)piperazin-1-yl)-2-oxo-1,2-dihydropyrido[3,2-d]pyrimidine-6-carbonitrile] | 5.46 | 4.21 | 5.48 |
| CCC1CN(c2nc(=O)n(C)c3ccc(C#N)nc23)[C@@H](C)CN1C(C)c1ccc(C(F)(F)F)c(CN2CCOCC2)c1 (single isomer, unassigned) [Example 351] | 6.42 | 5.98 | 6.74 |
